Holding throughout (type): cell-based
The target in one test is T1, human NE transporter (Homo sapiens, UniProt P23975).
T1 construct: expressed in transfected cells; host or cells: MDCK cells
Briefly: Inhibition of [3H]NE uptake in cells expressing the recombinant human NE transporter. The note with it: MDCK cells expressing the NE transporter; for inhibition at 1 µM: 1 μM compound, read-out: Uptake inh. % at 1 μM NE. The method, then:
(§1) The ability of the 1-heteroaryl-3-azabicyclo[3.1.0.]hexane of the invention for inhibiting transport of norepinephrine (NE) and/or dopamine (DA) and/or serotonin (5-HT) were evaluated using cell lines (such as the HEK 293 cell line) that stably express recombinant human NE, DA, and 5-HT transporters, respectively. The techniques for stably transfecting mammalian cell lines with neurotransmitter transporters and measuring the effects of drugs on amine uptake have been described in the literature (e.g., Gu, H., et al. J. Biol. Chem. 269:7124-7130, 1994; Eshleman A J, J Pharmacol Exp Ther 289:877-885, 1999) and well known to those skilled in the art.
(§2) A basic technique for measuring the ability of a compound to inhibit [^3H]NE, DA, and 5-HT uptake in cell lines recombinantly expressing human transporters has been described (Eshleman, et al., 1999). In brief, cell suspensions (HEK 293 cells expressing the 5-HT transporter; MDCK cells expressing the NE transporter, and CHO-K1 cells expressing the DA transporter, respectively) can be prepared for assay by removing the medium from cells grown on tissue culture dishes, then washing the plates with buffered medium. Cells can then be gently scraped from the plates and cell clusters separated by trituration with a pipette for 5-10 aspiration/ejection cycles. To these cell suspensions were added test drugs (final concentrations generally from 0.01-5 μM) and Tris/Hepes buffer, pH 7.1 (also containing 120 mM NaCl, 1.2 mM CaICl2, 1.2 mM MgSO4, 5 mM D-glucose, and 1 mM ascorbic acid). Following a preincubation of the isolated cells at 25° C., either [^3H]DA, [^3H]5-HT, or [^3H]NE was added and the incubation continued an additional 10 minutes. Radiolabelled neurotransmitter uptake was terminated by vacuum filtration and washing through Whatman glass fiber filters (GF/C), and the radioactivity retained on the filters was measured by liquid scintillation spectrometry. Specific uptake was defined as the difference in uptake observed in the absence and presence of a large molar excess of nomifensine, desipramine, or fluoxetine (for [^3H]DA, [^3H]NE or [^3H]5-HT, respectively].
(§3) The results of these assays are shown in Table 2, below, which indicates, for each of the exemplary compounds, the structure of the substituent, and levels of observed uptake inhibition percentage for each of the indicated neurotransmitters at a fixed concentration of compound, or the IC50 value, defined as that concentration of compound necessary to inhibit uptake by 50%. These are standard terms known to those skilled in the art.

The target in another test is T2, human 5-HT transporter (Homo sapiens, UniProt P31645).
T2 construct: expressed in transfected cells; host or cells: HEK 293 cells
Description: Inhibition of [3H]5-HT uptake in cells expressing the recombinant human 5-HT transporter. The note with it: HEK 293 cells expressing the 5-HT transporter; for inhibition at 1 µM: HEK293, 1 μM compound, read-out: Uptake inh. % at 1 μM 5-HT. On the procedure: as §1, §2, §3

The target of the next test is T3, human DA transporter (Homo sapiens, UniProt Q01959).
T3 construct: expressed in transfected cells; host or cells: CHO-K1 cells
Briefly: Inhibition of [3H]DA uptake in cells expressing the recombinant human DA transporter. Particulars: CHO-K1 cells expressing the DA transporter; for inhibition at 1 µM: 1 μM compound, read-out: Uptake inh. % at 1 μM DA. On the procedure:
as §1, §2, §3

In patent US9597315B2, “1-heteroaryl-3-azabicyclo[3.1.0]hexanes, methods for their preparation and their use as medicaments” (EUTHYMICS BIOSCIENCE, INC., priority 2007, dated 2017) one finds inhibition and IC50 data, which are given here for 25 compounds.

T3 sequence (Q01959 whole entry): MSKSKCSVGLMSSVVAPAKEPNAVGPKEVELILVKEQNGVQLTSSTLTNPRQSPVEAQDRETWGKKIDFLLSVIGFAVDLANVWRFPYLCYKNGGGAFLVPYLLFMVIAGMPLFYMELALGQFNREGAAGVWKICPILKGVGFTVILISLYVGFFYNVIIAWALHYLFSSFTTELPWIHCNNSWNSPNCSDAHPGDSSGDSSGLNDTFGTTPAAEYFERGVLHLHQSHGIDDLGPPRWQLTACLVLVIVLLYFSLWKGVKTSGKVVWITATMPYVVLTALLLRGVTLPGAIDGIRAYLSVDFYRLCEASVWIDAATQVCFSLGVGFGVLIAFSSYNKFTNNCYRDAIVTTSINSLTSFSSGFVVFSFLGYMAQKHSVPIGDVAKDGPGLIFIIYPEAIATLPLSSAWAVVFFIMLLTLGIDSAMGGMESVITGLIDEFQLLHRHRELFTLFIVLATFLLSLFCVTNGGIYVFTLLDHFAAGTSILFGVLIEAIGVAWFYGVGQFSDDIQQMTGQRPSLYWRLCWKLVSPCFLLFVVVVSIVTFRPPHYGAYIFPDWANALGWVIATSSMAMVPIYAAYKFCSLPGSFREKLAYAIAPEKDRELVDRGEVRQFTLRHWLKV
T2 sequence (P31645 whole entry): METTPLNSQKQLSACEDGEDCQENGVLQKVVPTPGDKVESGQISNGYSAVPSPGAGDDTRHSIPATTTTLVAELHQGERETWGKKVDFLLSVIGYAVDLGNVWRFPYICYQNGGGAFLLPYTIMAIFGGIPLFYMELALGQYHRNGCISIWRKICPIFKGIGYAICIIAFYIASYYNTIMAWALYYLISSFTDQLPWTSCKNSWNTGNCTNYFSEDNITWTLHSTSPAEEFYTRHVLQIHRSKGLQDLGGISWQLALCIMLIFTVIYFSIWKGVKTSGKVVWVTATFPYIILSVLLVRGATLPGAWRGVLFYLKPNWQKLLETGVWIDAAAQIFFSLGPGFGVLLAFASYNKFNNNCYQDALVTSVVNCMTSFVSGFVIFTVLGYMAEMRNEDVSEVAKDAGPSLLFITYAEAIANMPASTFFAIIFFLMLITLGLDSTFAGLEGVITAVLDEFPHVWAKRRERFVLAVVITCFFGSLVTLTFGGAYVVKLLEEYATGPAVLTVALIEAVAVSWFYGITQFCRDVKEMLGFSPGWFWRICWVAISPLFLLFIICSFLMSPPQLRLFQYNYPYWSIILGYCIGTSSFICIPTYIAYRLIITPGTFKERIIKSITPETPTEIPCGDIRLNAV
T1 sequence (P23975 whole entry): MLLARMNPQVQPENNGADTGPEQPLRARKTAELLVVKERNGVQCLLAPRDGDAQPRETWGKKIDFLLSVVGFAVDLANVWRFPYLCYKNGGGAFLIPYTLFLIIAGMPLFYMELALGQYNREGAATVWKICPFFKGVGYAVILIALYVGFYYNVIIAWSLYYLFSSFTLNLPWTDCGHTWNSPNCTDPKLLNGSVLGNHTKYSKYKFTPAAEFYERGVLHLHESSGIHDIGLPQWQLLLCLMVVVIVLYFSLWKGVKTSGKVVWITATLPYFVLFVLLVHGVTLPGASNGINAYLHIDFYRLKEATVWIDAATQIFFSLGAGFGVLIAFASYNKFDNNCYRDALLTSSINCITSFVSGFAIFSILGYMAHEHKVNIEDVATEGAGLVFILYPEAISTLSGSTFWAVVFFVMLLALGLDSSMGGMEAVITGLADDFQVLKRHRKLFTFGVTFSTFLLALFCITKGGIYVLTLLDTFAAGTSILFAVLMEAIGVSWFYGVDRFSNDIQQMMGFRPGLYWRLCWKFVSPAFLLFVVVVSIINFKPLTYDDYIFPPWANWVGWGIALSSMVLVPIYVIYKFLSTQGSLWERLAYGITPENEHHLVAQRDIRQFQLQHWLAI

Broadly, the IC50 is the concentration at which inhibition is half-maximal. For the compound `c1ccc2sc([C@@]34CNC[C@H]3C4)cc2c1`, the inhibition at 1 µM stood at 84% at human NE transporter, 76% at human 5-HT transporter and 90% at human DA transporter. Further, the IC50 at human NE transporter came to 99 nM; at human 5-HT transporter it was 481 nM; on human DA transporter, 149 nM.

`CN1C[C@H]2C[C@@]2(c2cc3ccccc3s2)C1`: the inhibition at 1 µM at human NE transporter is 89%; on human 5-HT transporter it was 99%; at human DA transporter it was 82%. The figures for the IC50 at human NE transporter, on human 5-HT transporter and on human DA transporter were 71 nM, 54 nM and 224 nM, respectively.

Consider `Fc1ccc2cc(C34CNCC3C4)sc2c1` (stereo not drawn), for which the results for the inhibition at 1 µM at human NE transporter, at human 5-HT transporter and at human DA transporter were 98%, 100% and 99%, respectively.

Take `CN1CC2CC2(c2csc3ccc(Cl)cc23)C1` (stereo not drawn): the values for the inhibition at 1 µM at human NE transporter, on human 5-HT transporter and at human DA transporter were 39%, 50% and 1%, respectively.

Consider `Cc1ccc(C23CNCC2C3)s1` (stereo not drawn), for which the values for the inhibition at 1 µM at human NE transporter, at human 5-HT transporter and at human DA transporter were 59%, 35% and 20%, respectively.

Turning to `c1ccc2sc(C34CNCC3C4)nc2c1` (stereo not drawn), the figures for the inhibition at 1 µM on human NE transporter, on human 5-HT transporter and at human DA transporter were 72%, 7% and 5%, respectively.

For the compound `Clc1ccc2scc(C34CNCC3C4)c2c1` (stereo not drawn), the inhibition at 1 µM on human NE transporter came out at 50%; at human 5-HT transporter it was 18%; on human DA transporter, 13%.

As for `CN1C[C@H]2C[C@]2(c2cc3ccccc3s2)C1`, the inhibition at 1 µM worked out at 75% on human NE transporter, 89% on human 5-HT transporter and 83% at human DA transporter. Moreover, the figures for the IC50 at human NE transporter, on human 5-HT transporter and at human DA transporter were 107 nM, 263 nM and 195 nM, respectively.

On to `Fc1ccc2sc(C34CNCC3C4)cc2c1` (stereo not drawn), for which the inhibition at 1 µM on human NE transporter was found to be 91%; at human 5-HT transporter, 98%; at human DA transporter, 78%.

Consider `CN1CC2CC2(c2coc3ccccc23)C1` (stereo not drawn), for which the inhibition at 1 µM on human NE transporter came out at 82%; on human 5-HT transporter, 45%; on human DA transporter, 67%. For the same compound, the IC50 on human NE transporter was determined as 138 nM; on human 5-HT transporter it was 1450 nM; on human DA transporter, 475 nM.

`CN1CC2CC2(c2cc3cc(F)ccc3s2)C1` (stereo not drawn): the inhibition at 1 µM at human NE transporter was 70%; on human 5-HT transporter, 94%; at human DA transporter, 63%.

`CCN1CC2CC2(c2cc3ccccc3n2C)C1` (stereo not drawn): the figures for the inhibition at 1 µM at human NE transporter, at human 5-HT transporter and at human DA transporter were 29%, 65% and 32%, respectively.

Turning to `c1ccc2c(C34CNCC3C4)coc2c1` (stereo not drawn), the values for the inhibition at 1 µM on human NE transporter, on human 5-HT transporter and at human DA transporter were 77%, 57% and 63%, respectively. For the same compound, the values for the IC50 at human NE transporter, on human 5-HT transporter and on human DA transporter were 82 nM, 188 nM and 770 nM, respectively.

As for `c1ccc2sc([C@]34CNC[C@H]3C4)cc2c1`, the inhibition at 1 µM at human NE transporter turned out to be 97%; on human 5-HT transporter, 96%; at human DA transporter, 90%. Also, the IC50 at human NE transporter came to 14 nM; at human 5-HT transporter, 193 nM; at human DA transporter, 52 nM.

Consider `c1cnc2ccc(C34CNCC3C4)cc2c1` (stereo not drawn), for which the inhibition at 1 µM on human NE transporter worked out at 68%; at human 5-HT transporter, 63%; on human DA transporter, 17%.

In the case of `c1ccc2sc(C34CNCC3C4)cc2c1` (stereo not drawn), the inhibition at 1 µM was 90% on human NE transporter, 66% on human 5-HT transporter and 91% on human DA transporter. Also, the values for the IC50 at human NE transporter, on human 5-HT transporter and at human DA transporter were 20 nM, 88 nM and 82 nM, respectively.

`CN1CC2CC2(c2cc3ccccc3o2)C1` (stereo not drawn): the IC50 on human NE transporter came to 400 nM; on human 5-HT transporter, 340 nM; on human DA transporter, 630 nM.

Take `CN1CC2CC2(c2ccc3c(ccn3C)c2)C1` (stereo not drawn): the inhibition at 1 µM at human NE transporter was 53%; at human 5-HT transporter, 71%; on human DA transporter it was 45%. In addition, the concentration for half-maximal inhibition (IC50) stood at 186 nM at human NE transporter, 154 nM on human 5-HT transporter and 811 nM at human DA transporter.

On to `CC(C)N1CC2CC2(c2cc3ccccc3n2C)C1` (stereo not drawn), for which the inhibition at 1 µM on human NE transporter was 13%; at human 5-HT transporter, 83%; on human DA transporter, 7%.

In the case of `CN1CC2CC2(c2cc3ccc(F)cc3s2)C1` (stereo not drawn), the inhibition at 1 µM at human NE transporter was found to be 88%; on human 5-HT transporter it was 99%; at human DA transporter, 94%.

For `c1ccc2ncc(C34CNCC3C4)cc2c1` (stereo not drawn), the inhibition at 1 µM on human NE transporter came out at 64%; on human 5-HT transporter, 14%; on human DA transporter, 10%.

For the compound `CN1CC2CC2(c2cc3ccccc3s2)C1` (stereo not drawn), the values for the inhibition at 1 µM on human NE transporter, on human 5-HT transporter and at human DA transporter were 71%, 92% and 88%, respectively. Besides, the IC50 at human NE transporter worked out at 60 nM; on human 5-HT transporter, 34 nM; at human DA transporter, 98 nM.

Consider `CN1CC2CC2(c2ccc3ncccc3c2)C1` (stereo not drawn), for which the inhibition at 1 µM on human NE transporter was found to be 13%; on human 5-HT transporter, 93%; at human DA transporter, 12%.

For `CCN1CC2CC2(c2ccc3c(ccn3C)c2)C1` (stereo not drawn), the figures for the inhibition at 1 µM on human NE transporter, on human 5-HT transporter and at human DA transporter were 39%, 59% and 65%, respectively. Further, the IC50 at human NE transporter came to 138 nM; on human 5-HT transporter it was 308 nM; on human DA transporter, 215 nM.

In the case of `CN1CC2CC2(c2cc3ccccc3n2C)C1` (stereo not drawn), the inhibition at 1 µM at human NE transporter stood at 35%; at human 5-HT transporter, 64%; on human DA transporter it was 19%.
